Experimental data reported in PMC8260145 (Archives of biochemistry and biophysics, 2021).
Values joined by “and” are separate entries in the source; they are usually repeats but may differ in a detail not shown here. Identical values can stand only once. Like-named read-outs stand apart in the source and are kept apart here.

Assays:
human liver microsomes [1] = assay: Inhibition of C152 metabolism in human liver microsomes; format: biochemical; conditions: 30 μM C152; for IC50: read-out: IC50 ((+)-N-3-Benzylnirvanol)
[2] = target: T1, recombinant human CYP2C19 (Homo sapiens, UniProt P33261); assay: Inhibition of C152 metabolism in SS
recombinant human CYP3A4 [3] = target: T2, recombinant human CYP3A4 (Homo sapiens, UniProt P08684); assay: Inhibition of C152 metabolism in SS
recombinant human CYP2B6 [4] = target: T3, recombinant human CYP2B6 (Homo sapiens, UniProt P20813); assay: Inhibition of C152 metabolism in SS
T3 sequence (P20813 1-491): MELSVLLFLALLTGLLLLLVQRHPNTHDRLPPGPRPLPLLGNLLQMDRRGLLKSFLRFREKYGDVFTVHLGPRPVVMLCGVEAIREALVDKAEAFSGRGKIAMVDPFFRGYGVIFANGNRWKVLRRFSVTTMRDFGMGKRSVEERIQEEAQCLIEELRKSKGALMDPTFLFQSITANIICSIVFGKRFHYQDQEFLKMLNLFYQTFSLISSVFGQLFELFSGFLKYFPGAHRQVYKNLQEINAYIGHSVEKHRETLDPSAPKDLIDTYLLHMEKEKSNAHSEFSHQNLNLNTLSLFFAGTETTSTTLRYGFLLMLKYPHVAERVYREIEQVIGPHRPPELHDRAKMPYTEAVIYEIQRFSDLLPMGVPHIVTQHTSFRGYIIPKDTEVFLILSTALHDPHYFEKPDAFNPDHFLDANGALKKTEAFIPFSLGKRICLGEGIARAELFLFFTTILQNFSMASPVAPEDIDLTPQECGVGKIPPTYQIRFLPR

recombinant human CYP3A5 [5] = target: T4, recombinant human CYP3A5 (Homo sapiens, UniProt P20815); assay: Inhibition of C152 metabolism in SS; conditions: SS(3A5), 30 μM C152
CYP2A6 [6] = conditions: cited from earlier work
human liver microsomes [7] = format: in vitro ADME
[8] = target: T1, recombinant human CYP2C19; assay: C152 demethylation, continuous fluorometric assay, Supersomes SS; format: in vitro ADME; conditions: SS(2C19)
CYP2C8 = conditions: cited from earlier work
recombinant human CYP3A4 [9] = assay: C152 demethylation, continuous fluorometric assay, Supersomes SS; format: in vitro ADME
recombinant human CYP2B6 [10] = target: T3, recombinant human CYP2B6; assay: as above; format: in vitro ADME; conditions: SS(2B6)
CYP2E1 = conditions: cited from earlier work
recombinant human CYP3A5 [11] = target: T4, recombinant human CYP3A5; assay: C152 demethylation, continuous fluorometric assay, Supersomes SS; format: in vitro ADME; conditions: SS(3A5)
recombinant human CYP3A4 [12] = target: T2, recombinant human CYP3A4
recombinant human CYP3A5 [13] = target: T4, recombinant human CYP3A5; assay: biochemical
CYP2A6 [14] = assay: 7-hydroxylation of coumarin in HLM; format: in vitro ADME, human; conditions: HLM(ODN), added CYP2A6 0
[15] = HLM(FVT) + added CYP3A5 43 pmol/mg protein (molar ratio 0.125)
[16] = HLM(ODN) + added CYP3A5 54 pmol/mg protein (molar ratio 0.125)
[17] = N-demethylation of C152, HLM(ODN), added CYP2A6 0
[18] = N-demethylation of C152, HLM(ODN), added CYP2A6 54 pmol/mg protein (ratio 0.125)
[19] = N-demethylation of C152, HLM(ODN), added CYP2A6 108 pmol/mg protein (ratio 0.25)
[20] = N-demethylation of C152, HLM(ODN), added CYP2A6 216 pmol/mg protein (ratio 0.5)
[21] = N-demethylation of C152, HLM(ODN), added CYP2A6 433 pmol/mg protein (ratio 1)

T2 sequence (P08684 2-503 limits assumed): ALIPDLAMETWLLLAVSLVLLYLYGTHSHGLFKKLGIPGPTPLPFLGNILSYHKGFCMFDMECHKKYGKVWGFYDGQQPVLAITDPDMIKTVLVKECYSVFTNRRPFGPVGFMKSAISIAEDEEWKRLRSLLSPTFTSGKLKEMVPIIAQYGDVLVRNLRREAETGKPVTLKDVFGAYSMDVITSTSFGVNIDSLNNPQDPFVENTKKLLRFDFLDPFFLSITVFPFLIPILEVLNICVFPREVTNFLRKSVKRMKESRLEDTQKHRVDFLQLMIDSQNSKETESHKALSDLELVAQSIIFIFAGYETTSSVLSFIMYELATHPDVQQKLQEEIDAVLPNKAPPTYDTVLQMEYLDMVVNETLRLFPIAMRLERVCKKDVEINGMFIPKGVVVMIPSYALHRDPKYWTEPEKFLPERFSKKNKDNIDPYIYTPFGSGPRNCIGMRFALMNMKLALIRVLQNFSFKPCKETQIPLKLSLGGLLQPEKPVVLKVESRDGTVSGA
T1 sequence (P33261 whole entry): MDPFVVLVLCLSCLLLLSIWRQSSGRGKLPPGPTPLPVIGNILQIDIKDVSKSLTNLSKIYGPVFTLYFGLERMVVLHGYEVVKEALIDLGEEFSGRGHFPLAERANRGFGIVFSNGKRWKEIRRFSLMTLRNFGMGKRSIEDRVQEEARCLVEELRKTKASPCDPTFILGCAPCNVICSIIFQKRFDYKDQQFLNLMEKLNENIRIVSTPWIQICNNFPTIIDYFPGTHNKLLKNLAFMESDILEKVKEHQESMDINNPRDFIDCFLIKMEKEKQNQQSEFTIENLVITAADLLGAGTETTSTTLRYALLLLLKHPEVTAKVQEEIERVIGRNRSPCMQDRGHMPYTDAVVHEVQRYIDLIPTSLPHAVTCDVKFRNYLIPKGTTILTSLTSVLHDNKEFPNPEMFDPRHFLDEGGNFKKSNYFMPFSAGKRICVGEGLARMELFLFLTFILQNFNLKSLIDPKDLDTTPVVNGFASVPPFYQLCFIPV
T4 sequence (P20815 whole entry): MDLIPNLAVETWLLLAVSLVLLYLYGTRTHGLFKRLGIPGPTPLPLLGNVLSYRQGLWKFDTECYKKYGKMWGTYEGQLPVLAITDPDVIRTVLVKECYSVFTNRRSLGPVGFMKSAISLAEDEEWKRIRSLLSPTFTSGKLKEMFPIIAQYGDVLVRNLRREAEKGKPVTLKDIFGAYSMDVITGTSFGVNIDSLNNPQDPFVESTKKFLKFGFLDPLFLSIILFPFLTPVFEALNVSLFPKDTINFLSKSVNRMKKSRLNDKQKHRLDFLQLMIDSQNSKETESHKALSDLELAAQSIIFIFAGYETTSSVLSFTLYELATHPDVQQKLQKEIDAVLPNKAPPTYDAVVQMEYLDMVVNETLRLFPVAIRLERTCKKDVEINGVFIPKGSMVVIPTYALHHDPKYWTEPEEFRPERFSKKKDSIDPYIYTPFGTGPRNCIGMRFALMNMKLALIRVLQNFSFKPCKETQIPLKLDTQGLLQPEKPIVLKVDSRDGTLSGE

Compound: Clc1ccc(Cc2ccncc2)cc1
- Maximal inhibition (human liver microsomes [1]; HLM(FVT)+CYP3A5 (12.5% of total P450)): 89 ± 8%
- Maximal inhibition (human liver microsomes [1]; HLM(FVT)): 79 ± 17%
- Maximal inhibition (human liver microsomes [1]; HLM(IHG)): 90 ± 3%
- Maximal inhibition (human liver microsomes [1]; HLM(LBA)): 88 ± 12%
- Maximal inhibition (human liver microsomes [1]; HLM(LFJ)): 84 ± 23%
- Maximal inhibition (human liver microsomes [1]; HLM(NQO)): 92 ± 4%
- Maximal inhibition (human liver microsomes [1]; HLM(ODN)+CYP3A5 (12.5% of total P450)): 70 ± 3%
- Maximal inhibition (human liver microsomes [1]; HLM(ODN)): 91 ± 2%
- IC50 [2]: 0.215 ± 0.118 µM
- IC50 (recombinant human CYP3A4 [3]): 0.225 ± 0.073 µM
- IC50 (recombinant human CYP2B6 [4]): 0.035 ± 0.01 µM
- Maximal inhibition (recombinant human CYP2B6 [4]; SS(2B6), 30 μM C152): 95 ± 3%

Compound: CC[C@@]1(c2ccccc2)NC(=O)N(Cc2ccccc2)C1=O [(+)-N-3-Benzylnirvanol, (S)-(+)-N-3-benzylnirvanol]
- Maximal inhibition ((+)-N-3-Benzylnirvanol) (recombinant human CYP3A5 [5]): 78 ± 21%
- IC50 (recombinant human CYP3A5 [5]; read-out: IC50 ((+)-N-3-Benzylnirvanol)): 6.6 ± 1.5 µM
- Maximal inhibition ((+)-N-3-Benzylnirvanol) (human liver microsomes [1]; HLM(FVT)): 62 ± 9%
- Maximal inhibition ((+)-N-3-Benzylnirvanol) (human liver microsomes [1]; HLM(IHG)): 47 ± 12%
- Maximal inhibition ((+)-N-3-Benzylnirvanol) (human liver microsomes [1]; HLM(LBA)+CYP2E1): 78 ± 36%
- Maximal inhibition ((+)-N-3-Benzylnirvanol) (human liver microsomes [1]; HLM(LBA)): 57 ± 10%
- Maximal inhibition ((+)-N-3-Benzylnirvanol) (human liver microsomes [1]; HLM(LFJ)+CYP2E1): 95 ± 6%
- Maximal inhibition ((+)-N-3-Benzylnirvanol) (human liver microsomes [1]; HLM(LFJ)): 79 ± 22%
- Maximal inhibition ((+)-N-3-Benzylnirvanol) (human liver microsomes [1]; HLM(NQO)): 78 ± 43%
- Maximal inhibition ((+)-N-3-Benzylnirvanol) (human liver microsomes [1]; HLM(ODN)): 65 ± 4%
- IC50 (human liver microsomes [1]; HLM(FVT)): 11 ± 4 µM
- IC50 (human liver microsomes [1]; HLM(IHG)): 16 ± 2 µM
- IC50 (human liver microsomes [1]; HLM(LBA)+CYP2E1): 26 ± 10 µM
- IC50 (human liver microsomes [1]; HLM(LBA)): 0.51 ± 0.03 µM
- IC50 (human liver microsomes [1]; HLM(LFJ)+CYP2E1): 12 ± 2 µM
- IC50 (human liver microsomes [1]; HLM(LFJ)): 0.49 ± 0.12 µM
- IC50 (human liver microsomes [1]; HLM(NQO)): 0.46 ± 0.39 µM
- IC50 (human liver microsomes [1]; HLM(ODN)): 19 ± 15 µM
- Maximal inhibition ((+)-N-3-Benzylnirvanol) (recombinant human CYP3A4 [3]; SS(3A4), 30 μM C152): 59 ± 10%
- IC50 (recombinant human CYP3A4 [3]; read-out: IC50 ((+)-N-3-Benzylnirvanol), SS(3A4), 30 μM C152): 27 ± 3 µM
- Maximal inhibition ((+)-N-3-Benzylnirvanol) (recombinant human CYP2B6 [4]; SS(2B6), 30 μM C152): 81 ± 7%
- IC50 (recombinant human CYP2B6 [4]; read-out: IC50 ((+)-N-3-Benzylnirvanol), SS(2B6), 30 μM C152): 8.5 ± 2.3 µM

Compound: CN(C)c1ccc2c(C(F)(F)F)cc(=O)oc2c1 [C152, 7-Dimethylamino-4-trifluromethylcoumarin]
- ability of CYP2A6 to catalyze demethylation of C152 (CYP2A6 [6]): lacks any ability to catalyze the demethylation of C152
- N (the Hill coefficient) (human liver microsomes [7]; [15]): 1.41 ± 0.66
- S50 (human liver microsomes [7]; [15]): 1.73 ± 0.66 µM
- Vmax (human liver microsomes [7]; [15]): 20.9 ± 5.7 min⁻¹
- N (the Hill coefficient) (human liver microsomes [7]; HLM(FVT)+CYP2E1): 1.28 ± 0.33
- S50 (human liver microsomes [7]; HLM(FVT)+CYP2E1): 18.9 ± 1.2 µM
- Vmax (human liver microsomes [7]; HLM(FVT)+CYP2E1): 20.6 ± 1.3 min⁻¹
- N (the Hill coefficient) (human liver microsomes [7]; HLM(FVT), intact): 1.49 ± 0.67
- S50 (human liver microsomes [7]; HLM(FVT), intact): 14.2 ± 1.0 µM
- Vmax (human liver microsomes [7]; HLM(FVT), intact): 33.6 ± 2.1 min⁻¹
- N (the Hill coefficient) (human liver microsomes [7]; HLM(IHG), intact): 1.03 ± 0.09
- S50 (human liver microsomes [7]; HLM(IHG), intact): 4.7 ± 2.7 µM
- Vmax (human liver microsomes [7]; HLM(IHG), intact): 46.3 ± 3.8 min⁻¹
- N (the Hill coefficient) (human liver microsomes [7]; HLM(LBA)+CYP2E1): 1.14 ± 0.26
- S50 (human liver microsomes [7]; HLM(LBA)+CYP2E1): 8.8 ± 2.1 µM
- Vmax (human liver microsomes [7]; HLM(LBA)+CYP2E1): 62.6 ± 5.6 min⁻¹
- N (the Hill coefficient) (human liver microsomes [7]; HLM(LBA), intact): 1.76 ± 0.33
- S50 (human liver microsomes [7]; HLM(LBA), intact): 4.4 ± 1.5 µM
- Vmax (human liver microsomes [7]; HLM(LBA), intact): 75.0 ± 10.6 min⁻¹
- N (the Hill coefficient) (human liver microsomes [7]; HLM(LFJ)+CYP2E1): 1.37 ± 0.44
- S50 (human liver microsomes [7]; HLM(LFJ)+CYP2E1): 11.6 ± 2.8 µM
- Vmax (human liver microsomes [7]; HLM(LFJ)+CYP2E1): 44.7 ± 5.9 min⁻¹
- N (the Hill coefficient) (human liver microsomes [7]; HLM(LFJ), intact): 1.94 ± 0.51
- S50 (human liver microsomes [7]; HLM(LFJ), intact): 4.8 ± 1.2 µM
- Vmax (human liver microsomes [7]; HLM(LFJ), intact): 47.8 ± 3.2 min⁻¹
- N (the Hill coefficient) (human liver microsomes [7]; HLM(NQO), intact): 1.03 ± 0.05
- S50 (human liver microsomes [7]; HLM(NQO), intact): 3.7 ± 1.9 µM
- Vmax (human liver microsomes [7]; HLM(NQO), intact): 29.9 ± 3.6 min⁻¹
- N (the Hill coefficient) (human liver microsomes [7]; [16]): 1.73 ± 0.69
- S50 (human liver microsomes [7]; [16]): 1.83 ± 0.96 µM
- Vmax (human liver microsomes [7]; [16]): 22.4 ± 1.3 min⁻¹
- N (the Hill coefficient) (human liver microsomes [7]; HLM(ODN), intact): 1.40 ± 0.17
- S50 (human liver microsomes [7]; HLM(ODN), intact): 3.3 ± 0.5 µM and 3.29 ± 0.53 µM
- Vmax (human liver microsomes [7]; HLM(ODN), intact): 37.1 ± 10.2 min⁻¹
- N (the Hill coefficient) (human liver microsomes [7]; HLM(S9)+CYP2E1): 1.16 ± 0.37
- S50 (human liver microsomes [7]; HLM(S9)+CYP2E1): 3.2 ± 1.5 µM
- Vmax (human liver microsomes [7]; HLM(S9)+CYP2E1): 6.6 ± 0.8 min⁻¹
- N (the Hill coefficient) (human liver microsomes [7]; HLM(S9), intact): 1.27 ± 0.25
- S50 (human liver microsomes [7]; HLM(S9), intact): 5.5 ± 2.9 µM
- Vmax (human liver microsomes [7]; HLM(S9), intact): 17.8 ± 4.6 min⁻¹
- Km (human liver microsomes [7]; [17]): 3.29 ± 0.53 µM
- N (human liver microsomes [7]; [17]): 1.40 ± 0.17
- Vmax (human liver microsomes [7]; [17]): 37.1 ± 10.2 min⁻¹
- Km (human liver microsomes [7]; [18]): 11.4 ± 0.2 µM
- N (human liver microsomes [7]; [18]): 1.30 ± 0.21
- Vmax (human liver microsomes [7]; [18]): 29.1 ± 1.3 min⁻¹
- Km (human liver microsomes [7]; [19]): 4.15 ± 1.33 µM
- N (human liver microsomes [7]; [19]): 1.04 ± 0.05
- Vmax (human liver microsomes [7]; [19]): 60.1 ± 10.9 min⁻¹
- Km (human liver microsomes [7]; [20]): 6.88 ± 2.47 µM
- N (human liver microsomes [7]; [20]): 1.14 ± 0.23
- Vmax (human liver microsomes [7]; [20]): 56.2 ± 4.9 min⁻¹
- Km (human liver microsomes [7]; [21]): 4.57 ± 2.57 µM
- N (human liver microsomes [7]; [21]): 1.38 ± 0.24
- Vmax (human liver microsomes [7]; [21]): 75.3 ± 25.2 min⁻¹
- S50 [8]: 5.7 ± 1.1 µM
- Vmax [8]: 8.3 ± 3.4 min⁻¹
- S50 (CYP2C8): 12 ± 6 µM
- turnover (CYP2C8): 2.6 ± 0.8 min⁻¹
- N (the Hill coefficient) (recombinant human CYP3A4 [9]; SS(3A4)): 1.61 ± 0.24
- S50 (recombinant human CYP3A4 [9]; SS(3A4)): 4.5 ± 1.2 µM
- Vmax (recombinant human CYP3A4 [9]; SS(3A4)): 23.8 ± 4.2 min⁻¹
- N (the Hill coefficient) (recombinant human CYP3A4 [9]; SS(3A4)+CYP2E1): 1.28 ± 0.31
- S50 (recombinant human CYP3A4 [9]; SS(3A4)+CYP2E1): 10.2 ± 2.8 µM
- Vmax (recombinant human CYP3A4 [9]; SS(3A4)+CYP2E1): 34.0 ± 4.6 min⁻¹
- S50 (recombinant human CYP2B6 [10]): 1.8 ± 0.2 µM
- Vmax (recombinant human CYP2B6 [10]): 44.2 ± 14.8 min⁻¹
- activity of CYP2E1 with C152 (CYP2E1): do not exhibit any activity
- S50 (recombinant human CYP3A5 [11]): 16.4 ± 4.8 µM
- Vmax (recombinant human CYP3A5 [11]): 8.8 ± 1.0 min⁻¹

Compound: Clc1ccccc1C(c1ccccc1)(c1ccccc1)n1ccnc1 [Clotrimazole]
- IC50 ([2]; read-out: IC50 (Clotrimazole), SS(2C19), 30 μM C152): 0.202 ± 0.113 µM
- IC50 with CYP3A4 lower than the values observed with CYP2B6 and CYP2C19 (recombinant human CYP3A4 [12]): 1–2 orders of magnitude
- IC50 (recombinant human CYP3A5 [13]): 0.164 ± 0.039 µM

Compound: O=c1ccc2ccccc2o1 [Coumarin, coumarin]
- N (CYP2A6 [14]): 1.66 ± 0.41
- Vmax (CYP2A6 [14]): 5.6 ± 0.5 min⁻¹
